Experimental data from the supplement of paper PMC8617591.

Key:
[1] = test system: Mycobacterium tuberculosis Erdman (autoluminescent); test: GRinf, maximum normalised growth rate inhibition (three-drug combination) (unitless (-1 to 1)); higher = less effect (negative = killing)
Procedure: (§1)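 DiaMOND equipotent three-drug combination dose responses (10 doses, 1.5- or 2-fold spacing, centred on IC90) against autoluminescent M. tuberculosis Erdman in 8 in vitro models. Read-out is OD600, or luminescence for the intracellular and dormancy models, normalised to untreated wells. Hill-fit Einf, AUC25 and GRinf are potency metrics; FIC50 and FIC90 are total Loewe fractional inhibitory concentrations as log2 (negative = synergy).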

[2] = test system: Mycobacterium tuberculosis Erdman (autoluminescent); test: total FIC50 (Loewe) at 50% inhibition, three-drug combination (log2); higher = more antagonistic
Procedure: as §1

[3] = test system: Mycobacterium tuberculosis Erdman (autoluminescent); test: Einf, fitted maximum growth inhibition of three-drug combination (fraction); higher = stronger maximal inhibition
Procedure: as §1

[4] = test system: Mycobacterium tuberculosis Erdman (autoluminescent); test: AUC25, normalised area under dose response up to IC25 (three-drug combination) (fraction (0-1)); higher = more potent at low dose
Procedure: as §1

[5] = test system: Mycobacterium tuberculosis Erdman (autoluminescent); test: total FIC90 (Loewe) at 90% inhibition, three-drug combination (log2); higher = more antagonistic
Procedure: as §1

COc1nc2ccc(Br)cc2cc1[C@@H](c1ccccc1)[C@@](O)(CCN(C)C)c1cccc2ccccc12 [bedaquiline] + CC(C)/N=c1\cc2n(-c3ccc(Cl)cc3)c3ccccc3nc-2cc1Nc1ccc(Cl)cc1 [clofazimine] + CO[C@H]1/C=C/O[C@@]2(C)Oc3c(C)c(O)c4c(O)c(c(/C=N/N5CCN(C)CC5)c(O)c4c3C2=O)NC(=O)/C(C)=C\C=C\[C@H](C)[C@H](O)[C@@H](C)[C@@H](O)[C@@H](C)[C@H](OC(C)=O)[C@@H]1C [rifampicin]
Conditions	AUC25, [4]	Einf, [3]	GRinf, [1]	total FIC50, [2]	total FIC90, [5]
in vitro model: acidic pH 5.7, time point: constant (~7 days, model-specific)	0.0895	0.926	-0.41	0.927	–
in vitro model: acidic pH 5.7, time point: terminal (~4-5 doublings, model-specific)	0.0837	0.992	-0.332	0.816	0.52
in vitro model: intracellular J774, time point: constant = terminal	–	0.965	-0.213	–	0.287

Conditions	AUC25, [4]	Einf, [3]	GRinf, [1]	total FIC50, [2]	total FIC90, [5]
in vitro model: butyrate, time point: constant (~7 days, model-specific)	0.0821	0.954	-0.113	0.164	-0.692
in vitro model: butyrate, time point: terminal (~4-5 doublings, model-specific)	0.0695	0.983	-0.115	0.163	-0.325
in vitro model: cholesterol 0.05 mM, time point: constant (~7 days, model-specific)	0.0702	0.714	-0.146	-0.919	–
in vitro model: cholesterol 0.05 mM, time point: terminal (~4-5 doublings, model-specific)	0.0755	0.925	-0.226	0.904	-0.861
in vitro model: cholesterol-high 0.2 mM, time point: constant (~7 days, model-specific)	0.0563	0.933	-0.277	-0.143	-0.728
in vitro model: cholesterol-high 0.2 mM, time point: terminal (~4-5 doublings, model-specific)	0.0498	0.999	-0.582	0.757	-0.216
in vitro model: dormancy (butyrate + nitrate, low O2), time point: constant (~7 days, model-specific)	0.0659	0.906	0.222	-0.0697	-0.643
in vitro model: dormancy (butyrate + nitrate, low O2), time point: terminal (~4-5 doublings, model-specific)	0.0651	0.994	-0.191	-0.41	-0.344
in vitro model: standard 7H9 glycerol, time point: constant = terminal	0.0883	0.959	-0.1	-0.172	-1.01
in vitro model: valerate, time point: constant (~7 days, model-specific)	0.0872	0.88	-0.0295	0.776	–
in vitro model: valerate, time point: terminal (~4-5 doublings, model-specific)	0.0594	0.936	-0.0101	0.627	0.54

COc1nc2ccc(Br)cc2cc1[C@@H](c1ccccc1)[C@@](O)(CCN(C)C)c1cccc2ccccc12 [bedaquiline] + O=[N+]([O-])c1cn2c(n1)OC[C@@H](OCc1ccc(OC(F)(F)F)cc1)C2 [pretomanid] + NC(=O)c1cnccn1 [pyrazinamide]
Conditions	AUC25, [4]	Einf, [3]	GRinf, [1]	total FIC50, [2]	total FIC90, [5]
in vitro model: acidic pH 5.7, time point: constant (~7 days, model-specific)	0.0919	0.881	-0.623	0.152	-0.764
in vitro model: acidic pH 5.7, time point: terminal (~4-5 doublings, model-specific)	0.0867	0.983	-0.421	0.197	0.0646
in vitro model: intracellular J774, time point: constant = terminal	–	0.972	-0.386	–	0.176

Conditions	AUC25, [4]	Einf, [3]	GRinf, [1]	total FIC50, [2]	total FIC90, [5]
in vitro model: butyrate, time point: constant (~7 days, model-specific)	0.119	0.946	-0.193	-0.0189	1.37
in vitro model: butyrate, time point: terminal (~4-5 doublings, model-specific)	0.102	0.978	-0.539	0.212	1.21
in vitro model: cholesterol 0.05 mM, time point: constant (~7 days, model-specific)	0.115	0.748	-0.231	–	–
in vitro model: cholesterol 0.05 mM, time point: terminal (~4-5 doublings, model-specific)	0.106	0.909	-0.185	0.657	–
in vitro model: cholesterol-high 0.2 mM, time point: constant (~7 days, model-specific)	0.0759	0.934	-0.252	0.548	–
in vitro model: cholesterol-high 0.2 mM, time point: terminal (~4-5 doublings, model-specific)	0.0678	0.998	-0.58	0.646	0.318
in vitro model: dormancy (butyrate + nitrate, low O2), time point: constant (~7 days, model-specific)	0.043	0.896	0.257	-0.949	-1.45
in vitro model: dormancy (butyrate + nitrate, low O2), time point: terminal (~4-5 doublings, model-specific)	0.0578	0.983	-0.0996	-1.05	-1.31
in vitro model: standard 7H9 glycerol, time point: constant = terminal	0.0709	0.957	-0.0903	-0.132	–
in vitro model: valerate, time point: constant (~7 days, model-specific)	0.0952	0.866	-0.0433	0.178	–
in vitro model: valerate, time point: terminal (~4-5 doublings, model-specific)	0.062	0.938	-0.0146	0.143	-0.0602

CC(C)/N=c1\cc2n(-c3ccc(Cl)cc3)c3ccccc3nc-2cc1Nc1ccc(Cl)cc1 [clofazimine] + NNC(=O)c1ccncc1 [isoniazid] + COc1c(N2C[C@@H]3CCCN[C@@H]3C2)c(F)cc2c(=O)c(C(=O)O)cn(C3CC3)c12 [moxifloxacin]
Conditions	AUC25, [4]	Einf, [3]	GRinf, [1]	total FIC50, [2]	total FIC90, [5]
in vitro model: acidic pH 5.7, time point: constant (~7 days, model-specific)	0.148	0.438	0.301	–	–
in vitro model: acidic pH 5.7, time point: terminal (~4-5 doublings, model-specific)	0.0974	0.923	-0.33	0.581	0.708
in vitro model: intracellular J774, time point: constant = terminal	–	1	-0.424	–	0.642

Conditions	AUC25, [4]	Einf, [3]	GRinf, [1]	total FIC50, [2]	total FIC90, [5]
in vitro model: butyrate, time point: constant (~7 days, model-specific)	0.0935	0.949	-0.0926	0.57	1.04
in vitro model: butyrate, time point: terminal (~4-5 doublings, model-specific)	0.0779	0.981	-0.0848	0.531	0.768
in vitro model: cholesterol 0.05 mM, time point: constant (~7 days, model-specific)	0.131	0.707	-0.174	0.411	–
in vitro model: cholesterol 0.05 mM, time point: terminal (~4-5 doublings, model-specific)	0.119	0.919	-0.228	0.344	0.0839
in vitro model: cholesterol-high 0.2 mM, time point: constant (~7 days, model-specific)	0.102	0.943	-0.266	0.253	0.868
in vitro model: cholesterol-high 0.2 mM, time point: terminal (~4-5 doublings, model-specific)	0.0858	1	-0.61	0.464	0.399
in vitro model: dormancy (butyrate + nitrate, low O2), time point: constant (~7 days, model-specific)	0.094	0.929	0.151	0.252	-0.33
in vitro model: dormancy (butyrate + nitrate, low O2), time point: terminal (~4-5 doublings, model-specific)	0.0919	0.988	-0.177	0.0561	1.09
in vitro model: standard 7H9 glycerol, time point: constant = terminal	0.0829	0.977	-0.209	0.374	0.44
in vitro model: valerate, time point: constant (~7 days, model-specific)	0.079	0.84	0.0938	0.474	–
in vitro model: valerate, time point: terminal (~4-5 doublings, model-specific)	0.0672	0.917	0.0935	0.256	0.99
